In test [1] the test system is σ^E-dependent rpoE P1::lacZ reporter (σ^E activity). To be noted: cited from earlier work.
The test system is the same in test [2]. Briefly: Differential rate of β-galactosidase synthesis from the σ^E-dependent rpoE P1::lacZ reporter fusion. The format is cell-based, Rhodobacter sphaeroides. The conditions noted are these: for Rate (differential rate of β-galactosidase synthesis from the σ^E-dependent rpoE::lacZ fusion): WT cells, Aero (30% O2). How it is done:
Bacterial strains and plasmids: R. sphaeroides 2.4.1 (wild-type, WT), R. sphaeroides with a mutant ChrR (ΔChrR) (chrR-1::drf; see Newman et al., supra.) or R. sphaeroides with both a mutant σ^E (Δσ^E) and ΔChrR (TF18; rpoEchrR-1::drf, see Schilke B & Donohue T, “ChrR positively regulates transcription of the Rhodobacter sphaeroides cytochrome c2 gene,” J. Bacteriol. 177:1929-1937 (1995), incorporated herein by reference as if set forth in its entirety) were grown at 30° C. in Sistrom's succinate-based minimal medium A. Media used for growth of strains containing low-copy lacZ reporter plasmids was supplemented with 25 μg/ml kanamycin.
Growth conditions: For aerobic respiratory growth, 500 ml of media was bubbled with a mixture of 69% N2, 30% O2 and 1% CO2 in the dark. Conversely, for photosynthetic growth, 500 ml of media was bubbled with a mixture of 95% N2 and 5% CO2 in front of an incandescent light source (10 W/m^2 as measured with a Yellow-Springs-Kettering model 6.5A radiometer through a Corning […] filter).
(§1) To test the effects of ^1O2, photosynthetic cultures were exposed to aerobic growth conditions (69% N2, 30% O2 and 1% CO2) in the presence or in the absence of light (10 W/m^2). Where indicated, light was passed through a 1283 filter (Kopp Glass; Pittsburgh, Pa.) that impedes >99% of light at wavelengths <770 nm, but transmits >45% of light at 830 nm and >80% of light at 900 nm. When using methylene blue (Sigma-Aldrich; St. Louis, Mo.) to generate ^1O2, a final concentration of 1 μM was added to aerobic cultures in the presence or in the absence of incandescent light (10 W/m^2). To test the effects of other ROS, 0.5 mM H2O2, 1 mM diamide or 1 mM paraquat (Sigma-Aldrich) was added to aerobic cultures.
Determining promoter activity: Promoter activity was determined by measuring β-galactosidase activity from a low copy rpoE P1::lacZ reporter plasmid or a trxA::lacZ reporter plasmid. The promoter for the thioredoxin gene (trxA, −214 to +27 relative to the known transcription initiation site) was fused to lacZ and mobilized into R. sphaeroides.
β-galactosidase activity (units/ml of culture) was calculated as follows: (A420×1000)/(Cell volume in assay (ml)×Time of assay (min)). Culture density was typically monitored by measuring A600 in a BioSpec 1601 spectrophotometer (Schimatzu; Columbia, Md.). The density of cultures treated with methylene blue was monitored at 500 nm because methylene blue absorbs light between 609-668 nm. The differential rate of β-galactosidase synthesis was determined by calculating the slope from plots of enzyme activity (units/ml of culture) against optical density. All experiments were repeated a minimum of three times with differential rates of β-galactosidase synthesis typically deviating less than two-fold between experiments.

For test [3], the system named is trxA::lacZ reporter (trx promoter). The format is cell-based, Rhodobacter sphaeroides.
Method: To test the effects of ^1O2, photosynthetic cultures were exposed to aerobic growth conditions (69% N2, 30% O2 and 1% CO2) in the presence or in the absence of light (10 W/m^2). Where indicated, light was passed through a 1283 filter (Kopp Glass; Pittsburgh, Pa.) that impedes >99% of light at wavelengths <770 nm, but transmits >45% of light at 830 nm and >80% of light at 900 nm. When using methylene blue (Sigma-Aldrich; St. Louis, Mo.) to generate ^1O2, a final concentration of 1 μM was added to aerobic cultures in the presence or in the absence of incandescent light (10 W/m^2). […]
Determining promoter activity: Promoter activity was determined by measuring β-galactosidase activity from a low copy rpoE P1::lacZ reporter plasmid or a trxA::lacZ reporter plasmid. […]
β-galactosidase activity (units/ml of culture) was calculated as follows: (A420×1000)/(Cell volume in assay (ml)×Time of assay (min)). Culture density was typically monitored by measuring A600 in a BioSpec 1601 spectrophotometer (Schimatzu; Columbia, Md.). The density of cultures treated with methylene blue was monitored at 500 nm because methylene blue absorbs light between 609-668 nm. The differential rate of β-galactosidase synthesis was determined by calculating the slope from plots of enzyme activity (units/ml of culture) against optical density. […]
Test [4] has as its system R. sphaeroides Δσ^E mutant. The experiment in a line: Growth and viability of aerobically grown cells treated with methylene blue in the presence of light. The format is cell-based, Rhodobacter sphaeroides. The conditions noted are these: methylene blue + light (1O2), FIG. 3. How it is done: as §1
All experiments were initiated when cultures reached ˜2×10^8 cfu/ml to minimize light or O2 limitation to photosynthetic and aerobic cells, respectively. To measure cell viability, samples were removed, diluted and plated in media supplemented with 25 μg/ml kanamycin to select for the rpoE P1::lacZ reporter plasmid. The whole cell abundance of carotenoids was measured as described in Cohen-Bazire G, et al., “Kinetic studies of pigment synthesis by non-sulfur purple bacteria,” J. Cell Physiol. 49:25-68 (1957). […]

[5] abbreviates: WT cells grown aerobically, 0.5 mM H2O2, 1 mM diamide or 1 mM paraquat, untreated = 11.

Read-outs that look alike come from different tables or passages of the source.

Turning to `CN(C)C(=O)/N=N/C(=O)N(C)C` [Diamide, diamide], in test [1], the “σ^E activity upon exposure to the compound (previous work)” value was “does not increase”. In addition, in test [2] (setting [5]), the “rpoE P1::lacZ fusion (differential rate of β-galactosidase synthesis)” value is 3.
For `OO` [H2O2, hydrogen peroxide], the “trxA::lacZ fusion (differential rate of β-galactosidase synthesis)” value in test [3] is listed as 220. Further, in test [2], the “Change of differential rate of β-galactosidase synthesis from the σ^E-dependent reporter fusion compared to untreated cells” value is “no more than 1.2 fold” and the “rpoE P1::lacZ fusion (differential rate of β-galactosidase synthesis)” value came to 13.
In the case of `C[n+]1ccc(-c2cc[n+](C)cc2)cc1` [Paraquat, paraquat], the “trxA::lacZ fusion (differential rate of β-galactosidase synthesis)” value in test [3] (WT cells grown aerobically, 0.5 mM H2O2 or 1 mM paraquat, untreated = 185) is reported as 450. For the same compound, the “rpoE P1::lacZ fusion (differential rate of β-galactosidase synthesis)” value in test [2] (setting [5]) is given as 6. Further, in test [2] (aerobic WT cells, 0.5 mM H2O2 or 1 mM paraquat), the “Change of differential rate of β-galactosidase synthesis from the σ^E-dependent reporter fusion compared to untreated cells” value is listed as “decreased”.
For `CN(C)c1ccc2nc3ccc(=[N+](C)C)cc-3sc2c1` [methylene blue], the “Increase of differential rate of β-galactosidase synthesis from rpoE P1::lacZ compared to aerobic cells grown without methylene blue” value in test [2] (WT aerobic cells, 1 μM methylene blue, light and O2) is listed as roughly 20 fold. The “Increase of rate of β-galactosidase synthesis from rpoE P1::lacZ” value in test [2] (WT aerobic cultures, methylene blue in the dark) was “two-fold”. Further, the “Rate (differential rate of β-galactosidase synthesis from the σ^E-dependent rpoE::lacZ fusion)” value in test [2] (1 μM methylene blue + light (generates 1O2)) turned out to be 151; in test [2] (1 μM methylene blue, dark (no 1O2)) it was 8. Besides, in test [4], the “Effect on Δσ^E mutant when carotenoids are low (OD500nm, cfu/ml)” value is “bacteriocidal”.

(Values after US8003390B2, “Responses to singlet oxygen” (Wisconsin Alumni Research Foundation, priority 2005, dated 2011).)
